The values that follow come from ChEMBL document CHEMBL1777738, “3-Cyano-6-(5-methyl-3-pyrazoloamino)pyridines: selective Aurora A kinase inhibitors” (Bioorg Med Chem Lett, 2010).

One series deals with T1, Aurora kinase A (Homo sapiens, UniProt O14965).
T1 sequence (O14965 whole entry): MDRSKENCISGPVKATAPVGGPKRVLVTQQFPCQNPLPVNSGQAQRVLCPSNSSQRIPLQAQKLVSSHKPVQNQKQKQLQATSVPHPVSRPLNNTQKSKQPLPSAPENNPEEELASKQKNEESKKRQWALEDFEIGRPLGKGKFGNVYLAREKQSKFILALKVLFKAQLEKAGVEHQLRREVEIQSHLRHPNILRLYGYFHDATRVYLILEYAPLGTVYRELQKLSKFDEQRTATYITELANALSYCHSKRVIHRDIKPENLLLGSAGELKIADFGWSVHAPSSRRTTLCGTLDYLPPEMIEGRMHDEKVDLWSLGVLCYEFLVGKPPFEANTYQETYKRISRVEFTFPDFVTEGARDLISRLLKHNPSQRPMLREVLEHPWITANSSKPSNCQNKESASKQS

The nature of series [1]: Intrinsic clearance in human hepatic microsomes. The series is classed as ADME, Liver, Microsome.
Series [2] deals with HCT-116. The series is described as follows: Antitumor activity against human HCT116 cells xenografted in mouse assessed as tumor growth inhibition at 30 mg/kg, ip qd for 14 days. Background: In xenograft studies the graft and the host belong to different species.
The test system of series [3] is HCT-116. The experiment in a line: Antitumor activity against human HCT116 cells xenografted in mouse assessed as tumor growth inhibition at 100 mg/kg, ip qd for 14 days.
The subject of series [4] is HCT-116. The experiment in a line: Antiproliferative activity against human HCT116 cells. The series is classed as functional, cell-based.
The nature of series [5]: Drug level in rat serum at 30 mg/kg, po after 24 hrs. The format is ADME, organism-based. Also noted: dose 30 mg/kg, route oral. Particulars: read-out: Drug uptake.
For series [6], the target named is Tyrosine-protein kinase Fyn (Homo sapiens, UniProt P06241). The experiment in a line: Inhibition of Fyn.
Series [7] in a line: Half life in rat at 30 mg/kg, po. The series is classed as ADME, organism-based. Also noted: dose 30 mg/kg, route oral. Particulars: in vivo.
A further series deals with Mus musculus. The experiment in a line: Toxicity in human HCT116 cells xenografted mouse assessed as reduction in body weight at 30 mg/kg, po qd for 14 days. The format is organism-based, HCT-116. Also noted: dose 30 mg/kg, route oral. The conditions noted are these: in vivo, 336 h.
Series [8] is described as follows: Cmax in rat at 30 mg/kg, po. The series is classed as ADME, organism-based. Also noted: dose 30 mg/kg, route oral. The conditions noted are these: in vivo.
The target in another series is Aurora kinase B (Homo sapiens, UniProt Q96GD4). The experiment in a line: Inhibition of aurora B.
Series [9] has as its system HCT-116. The series is described as follows: Antitumor activity against human HCT116 cells xenografted in mouse assessed as tumor growth inhibition at 30 mg/kg, po qd for 14 days. Particulars: HCT-116, 336 h. The series is classed as functional.
Series [10] deals with Tyrosine-protein kinase Yes (Homo sapiens, UniProt P07947). The experiment in a line: Inhibition of Yes.
Series [11] can be described thus: Tmax in rat at 30 mg/kg, po. Also noted: dose 30 mg/kg, route oral. The format is ADME, organism-based. Particulars: in vivo.
Series [12] deals with Proto-oncogene tyrosine-protein kinase Src (Homo sapiens, UniProt P12931). The experiment in a line: Inhibition of c-SRC.

Molecules are shown by their SMILES.

Tyrosine-protein kinase Fyn, sequence (P06241 whole entry): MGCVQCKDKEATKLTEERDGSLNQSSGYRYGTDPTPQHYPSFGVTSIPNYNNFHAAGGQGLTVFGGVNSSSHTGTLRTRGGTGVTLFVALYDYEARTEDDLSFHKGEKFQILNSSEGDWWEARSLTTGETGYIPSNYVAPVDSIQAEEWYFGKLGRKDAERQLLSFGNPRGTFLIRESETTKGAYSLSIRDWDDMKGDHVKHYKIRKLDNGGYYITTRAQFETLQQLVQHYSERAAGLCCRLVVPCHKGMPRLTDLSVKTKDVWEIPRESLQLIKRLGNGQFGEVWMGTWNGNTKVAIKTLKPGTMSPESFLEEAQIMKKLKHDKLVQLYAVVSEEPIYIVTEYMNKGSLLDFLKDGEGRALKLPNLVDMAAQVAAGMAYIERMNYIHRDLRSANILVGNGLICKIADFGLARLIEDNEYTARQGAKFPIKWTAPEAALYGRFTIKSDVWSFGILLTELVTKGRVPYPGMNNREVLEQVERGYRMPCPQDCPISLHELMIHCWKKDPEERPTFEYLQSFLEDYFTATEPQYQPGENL
Tyrosine-protein kinase Yes, sequence (P07947 whole entry): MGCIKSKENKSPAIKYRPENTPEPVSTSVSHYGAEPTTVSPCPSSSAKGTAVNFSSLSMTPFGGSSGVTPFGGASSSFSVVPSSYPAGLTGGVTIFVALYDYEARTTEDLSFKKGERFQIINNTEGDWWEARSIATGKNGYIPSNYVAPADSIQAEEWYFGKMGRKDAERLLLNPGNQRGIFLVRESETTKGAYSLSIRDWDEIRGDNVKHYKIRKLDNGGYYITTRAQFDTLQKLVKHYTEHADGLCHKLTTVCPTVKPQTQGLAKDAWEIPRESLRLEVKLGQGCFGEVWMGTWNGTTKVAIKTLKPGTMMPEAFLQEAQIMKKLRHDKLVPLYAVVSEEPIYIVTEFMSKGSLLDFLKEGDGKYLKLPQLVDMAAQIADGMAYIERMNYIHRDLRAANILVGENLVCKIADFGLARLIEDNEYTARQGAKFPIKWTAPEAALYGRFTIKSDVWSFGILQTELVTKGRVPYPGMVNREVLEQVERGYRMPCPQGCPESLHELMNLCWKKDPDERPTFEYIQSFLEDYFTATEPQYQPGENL
Proto-oncogene tyrosine-protein kinase Src, sequence (P12931 2-536 limits assumed): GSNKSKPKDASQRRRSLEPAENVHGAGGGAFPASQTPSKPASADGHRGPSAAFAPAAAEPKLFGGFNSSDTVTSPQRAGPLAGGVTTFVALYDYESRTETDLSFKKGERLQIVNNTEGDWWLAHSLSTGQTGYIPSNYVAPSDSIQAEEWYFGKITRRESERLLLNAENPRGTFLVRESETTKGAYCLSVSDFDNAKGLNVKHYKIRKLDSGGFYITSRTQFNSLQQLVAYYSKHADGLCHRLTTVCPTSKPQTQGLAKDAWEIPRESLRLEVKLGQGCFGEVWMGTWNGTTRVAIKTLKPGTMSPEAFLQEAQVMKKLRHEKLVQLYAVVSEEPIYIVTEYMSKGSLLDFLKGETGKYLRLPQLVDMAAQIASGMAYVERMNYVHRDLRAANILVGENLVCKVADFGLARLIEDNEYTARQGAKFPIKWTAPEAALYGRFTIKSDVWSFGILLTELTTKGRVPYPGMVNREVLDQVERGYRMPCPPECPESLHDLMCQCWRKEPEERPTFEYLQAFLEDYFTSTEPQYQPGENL
Aurora kinase B, sequence (Q96GD4 whole entry): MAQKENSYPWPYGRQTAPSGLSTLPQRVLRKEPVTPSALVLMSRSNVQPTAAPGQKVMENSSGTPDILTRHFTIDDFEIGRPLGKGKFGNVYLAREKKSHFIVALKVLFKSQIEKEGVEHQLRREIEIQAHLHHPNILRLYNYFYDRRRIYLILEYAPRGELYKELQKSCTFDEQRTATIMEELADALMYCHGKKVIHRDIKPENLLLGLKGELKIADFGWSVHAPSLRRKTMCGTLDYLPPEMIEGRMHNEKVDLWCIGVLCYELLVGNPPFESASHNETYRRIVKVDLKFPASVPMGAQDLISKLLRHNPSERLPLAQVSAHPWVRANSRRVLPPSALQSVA
Description for Aurora kinase A: Inhibition of phosphotransferase activity of recombinant aurora A expressed in HeLa cells

As a reminder, the Ki is the dissociation constant of the complex between target and ligand, obtained from inhibition or displacement. The low end stands for a stronger hold on the target, the high end for a looser hold on the target. In turn, `CC(=O)Nc1ccc(Sc2nc(Nc3cc(C)n[nH]3)cc(C)c2C#N)cc1` yielded an inhibitory constant (Ki) on Aurora kinase A of 5.3 nM.

As for `Cc1cc(Nc2cc(C)c(C#N)c(NCCCCCCO)n2)[nH]n1`, the inhibitory constant (Ki) at Aurora kinase A was 4.5 nM.

`Cc1cc(Nc2cc(C)c(C#N)c(N[C@H](C)CCCC(C)(C)O)n2)n[nH]1` showed a Ki at Aurora kinase A of 66 nM. This compound also yielded a CL in series [1] of 110 µL/min/mg.

Take `Cc1cc(Nc2cc(C)c(C#N)c(NCCO)n2)[nH]n1`: on Aurora kinase A, the Ki is 20 nM.

Take `Cc1cc(Nc2cc(C)c(C#N)c(SCCCCCCN)n2)[nH]n1`: affinity on Aurora kinase A was put at a Ki of 28 nM.

The compound `Cc1cc(Nc2cc(C)c(C#N)c(NCCCCCC(C)(C)O)n2)n[nH]1` registered an inhibitory constant (Ki) at Aurora kinase A of 2.3 nM.

Consider `Cc1cc(Nc2cc(C)c(C#N)c(SCCCCCCO)n2)[nH]n1`, for which the Ki at Aurora kinase A came to 8.5 nM.

As to `Cc1cc(Nc2cc(N3CCN(C)CC3)nc(Sc3ccc(NC(=O)C4CC4)cc3)n2)n[nH]1`, the growth inhibition (GI) in the series on HCT-116 [2] was 60%; with HCT-116 [3] it was 68%.

One may read the IC50 as the concentration that inhibits the measured activity by half. A high value points to lower potency. For the compound `Cc1cc(Nc2cc(C)c(C#N)c(N[C@@H](C)CCCC(C)(C)O)n2)[nH]n1`, the affinity on Aurora kinase A corresponds to a Ki of 0.59 nM. This compound also came in with a CL in [1] of 50 µL/min/mg. The compound further gave a 50% inhibitory concentration (IC50) in the series on HCT-116 [4] of 52 nM.

In the case of `CCCCCCSc1nc(Nc2cc(C)n[nH]2)cc(C)c1C#N`, the Ki at Aurora kinase A was found to be 3.8 nM.

The compound `Cc1cc(Nc2cc(-c3ccccc3)c(C#N)c(Sc3ccc(NC(=O)C(C)C)cc3)n2)n[nH]1` had a Ki on Aurora kinase A of 310 nM.

By half-life is commonly meant the time needed for the level to fall by half in the phase considered. A higher half-life goes with slow decline. Broadly, the Cmax is the peak of the concentration-time curve. As a reminder, the inhibition in vivo is the share of the control response that was lost under treatment. By Tmax is commonly meant the time at which the peak concentration occurs. Regarding `Cc1cc(Nc2cc(C)c(C#N)c(NC(C)CCCC(C)(C)O)n2)n[nH]1.Cl` (racemic), in [5], the concentration at 24 h turned out to be 52 nM. The inhibitory constant (Ki) came out at 28 nM in [6]; 1.2 nM on Aurora kinase A; 101 nM at Aurora kinase B; 24 nM in series [10]; 26 nM in series [12]. Further, the half-life in [7] is 3.3 h. Besides, in the series with Mus musculus, the Activity entry is on record as “Non-toxic”. The same compound showed a Cmax in series [8] of 4930 nM. Besides, the inhibition in vivo at 30 mg/kg in the series on HCT-116 [9] worked out at 59%. The same compound showed a CL in [1] of 70 µL/min/mg. Further, in the series with HCT-116 [4], it took 115 nM to reach half-maximal inhibition (IC50). Also, the Tmax in series [11] amounted to 1.2 h.

`Cc1cc(Nc2cc(C)c(C#N)c(SCCCCCC(C)(C)O)n2)[nH]n1` registered an inhibition constant (Ki) at Aurora kinase A of 9.7 nM.
